{"source": "ChEMBL document CHEMBL4177718", "about": "“Discovery of molecular mechanism of a clinical herbal formula upregulating serum HDL-c levels in treatment of metabolic syndrome by in vivo and computational studies” (2018)", "data": [{"organism": "Rattus norvegicus", "test": "Up-regulation of ABCA1 protein expression in serum of Wistar rat model of metabolic syndrome fed with high-sugar-fat-diet for 15 weeks followed by high-fat emulsion for 2 weeks by ELISA", "assay_type": "functional", "values": [{"smiles": "O=c1cc(-c2csc3ccccc23)oc2cc(O)ccc12", "fold change (FC)": 1.44}, {"smiles": "O=c1cc(-c2ccc3ccccc3n2)oc2cc(O)ccc12", "fold change (FC)": 1.36}, {"smiles": "CC(C)c1ccc(/C=C/C(=O)c2ccc(N)cc2O)cc1", "fold change (FC)": 2.05}, {"smiles": "COc1ccc(/C=C/C(=O)c2ccc(N)cc2O)cc1OC", "fold change (FC)": 1.86}, {"smiles": "COc1ccc(-c2ccc(-c3cc(=O)c4ccc(O)cc4o3)s2)cc1", "fold change (FC)": 1.03}, {"smiles": "Nc1ccc(C(=O)/C=C/c2cc(C(F)(F)F)cc(C(F)(F)F)c2)c(O)c1", "fold change (FC)": 1.12}, {"smiles": "Nc1ccc(C(=O)/C=C/c2cccc(Oc3ccccc3)c2)c(O)c1", "fold change (FC)": 1.76}, {"smiles": "O=c1cc(-c2cccc(Oc3ccccc3)c2)oc2cc(O)ccc12", "fold change (FC)": 1.17}, {"smiles": "O=c1cc(-c2ccc3ccccc3c2)oc2cc(O)ccc12", "fold change (FC)": 1.57}, {"smiles": "Nc1ccc(C(=O)/C=C/c2csc3ccccc23)c(O)c1", "fold change (FC)": 2.31}, {"smiles": "COc1cc(N(C)C)ccc1C(=O)/C=C/c1ccc(C)o1", "fold change (FC)": 1.57}, {"smiles": "COc1cccc(/C=C/C(=O)c2ccc(N)cc2O)c1", "fold change (FC)": 2.09}, {"smiles": "COc1cc(N)ccc1C(=O)/C=C/c1ccc(C)o1", "fold change (FC)": 1.2}, {"smiles": "Cc1ccc(-c2cc(=O)c3ccc(N)cc3o2)o1", "fold change (FC)": 1.3}, {"smiles": "Nc1ccc(C(=O)/C=C/c2c[nH]c3ccccc23)c(O)c1", "fold change (FC)": 1.76}, {"smiles": "COc1cc(N(C)C)ccc1C(=O)/C=C/c1ccc2ccccc2c1", "fold change (FC)": 1.35}, {"smiles": "COc1cc(/C=C/C(=O)c2ccc(N)cc2O)cc(OC)c1OC", "fold change (FC)": 0.98}, {"smiles": "COc1ccc(-c2ccc(/C=C/C(=O)c3ccc(N)cc3O)s2)cc1", "fold change (FC)": 1.09}, {"smiles": "Nc1ccc(C(=O)/C=C/c2ccc(F)cc2)c(O)c1", "fold change (FC)": 1.36}, {"smiles": "O=C(O)c1ccc(-c2cc(=O)c3ccc(O)cc3o2)cc1", "fold change (FC)": 1.66}, {"smiles": "Nc1ccc(C(=O)/C=C/c2ccc3ccccc3c2)c(O)c1", "fold change (FC)": 2.64}, {"smiles": "Cc1ccc(/C=C/C(=O)c2ccc(N)cc2O)s1", "fold change (FC)": 2}, {"smiles": "Cc1ccc(/C=C/C(=O)c2ccc(N)cc2O)o1", "fold change (FC)": 2.09}, {"smiles": "Cc1ccc(/C=C/C(=O)c2ccc(N(C)C)cc2O)o1", "fold change (FC)": 1.02}, {"smiles": "O=c1cc(-c2ccc(-c3ccccc3)cc2)oc2cc(O)ccc12", "fold change (FC)": 1.15}, {"smiles": "CCOc1ccc(-c2cc(=O)c3ccc(N)cc3o2)cc1", "fold change (FC)": 1.37}, {"smiles": "CCc1ccc(/C=C/C(=O)c2ccc(N)cc2O)cc1", "fold change (FC)": 1.73}, {"smiles": "Nc1ccc(C(=O)CCc2ccc3ccccc3c2)c(O)c1", "fold change (FC)": 1.34}, {"smiles": "Nc1ccc(C(=O)/C=C/c2ccc(-c3ccccc3)cc2)c(O)c1", "fold change (FC)": 1.55}, {"smiles": "Cc1ccc(CCC(=O)c2ccc(N)cc2O)o1", "fold change (FC)": 1.9}, {"smiles": "Cc1ccc(-c2cc(=O)c3ccc(N)cc3o2)s1", "fold change (FC)": 1.47}, {"smiles": "COc1cc(N)ccc1C(=O)/C=C/c1ccc(C)s1", "fold change (FC)": 1.5}, {"smiles": "CC(=O)Nc1ccc(C(=O)/C=C/c2ccc(C)s2)c(O)c1", "fold change (FC)": 1.08}, {"smiles": "CC(C)c1ccc(-c2cc(=O)c3ccc(O)cc3o2)cc1", "fold change (FC)": 1.22}, {"smiles": "CSc1ccc(/C=C/C(=O)c2ccc(N)cc2O)cc1", "fold change (FC)": 1.26}, {"smiles": "Nc1ccc(C(=O)/C=C/c2ccc3c(c2)OCO3)c(O)c1", "fold change (FC)": 1.92}, {"smiles": "CCOc1ccc(/C=C/C(=O)c2ccc(N)cc2OC)cc1", "fold change (FC)": 1.06}, {"smiles": "CCOc1ccc(/C=C/C(=O)c2ccc(N)cc2O)cc1", "fold change (FC)": 1.92}, {"smiles": "COc1cc(N)ccc1C(=O)/C=C/c1ccc2ccccc2c1", "fold change (FC)": 0.88}, {"smiles": "O=c1cc(-c2c[nH]c3ccccc23)oc2cc(O)ccc12", "fold change (FC)": 1.9}, {"smiles": "Nc1ccc(C(=O)/C=C/c2ccc(Cl)cc2)c(O)c1", "fold change (FC)": 1.16}]}]}
